What all share (assay type): physicochemical
A short description of data set [1]: Visual solubility of Form 1 in common solvents. The note with it: thermodynamic from solid. The protocol: Solubility of Form 1 was tested visually. About 5 mg of Form I was accurately weighed into a glass vial of 5 ml. Small amounts of solvent was added gradually into the vial until the compound was dissolved or when the total amount added reached 5 ml. The cumulative volume of the solvent was recorded.

The nature of data set [2]: Solid state stability under stress conditions (XRPD, HPLC). The conditions noted are these: for XRPD pattern after stress storage: closed vial about 60° C., closed vial about 40° C./75% RH, 1 week and 2 weeks. The protocol: Form 1. Form 2, Form 6, Form 8, and Form 11 were each placed under following stress conditions: (1) in a closed vial at a temperature of about 60° C., and (2) in a closed vial at a temperature of about 40′° C. and a humidity of about 75% RH. The solids were analyzed with XRPD at 1 week and 2 weeks intervals.
Additionally, all forms were analyzed with HPLC for impurity at the 1 week and 2 weeks intervals. In a typical analysis, about 5 mg of forms were each dissolved in 10 ml of diluents with the aid of sonication for 2 minutes. THF was used as the diluent for Form 1, and methanol was used as the diluent for Form 6, Form 8, and Form 11. The HPLC analysis utilized Agilent Eclipse XDB-C18 4.6*150 mm. 3.5 μm at 30° C., a mobile phase of a gradient between 0.1% H3PO4 and acetonitrile (9:1 to 2:8 to 9:1), an injection volume of 10 μl, a flow rate of 1.0 ml/min, and a detection wavelength of 214 nm.
Form 2 was further subject to the stability test in an open vial at 40° C. and a relative humidity of 75% RH.

Data set [3] can be described thus: Suspensions for animal formulation in 0.5% CMC-Na (XRPD). The note with it: about 30 mg in 30 ml, sonication. The protocol:
About 30 mg of Form 1, Form 2, and Form 5D were each added into a respective 40 ml glass bottle and mixed with 30 ml of 0.5% CMC-Na solution. The solids were dispersed uniformly in the solution with the aid of sonication. After that, the solids were isolated by centrifugation, dried at room temperature, and the dry solid analyzed with XRPD.

The nature of data set [4]: Heating study of Form 1. The conditions noted are these: 110° C. about 10 minutes / 100° C. 20 minutes. The protocol: About 150 mg of Form 1 was heated to 110° C. and maintained for about 10 minutes. The sample color changed from light yellow to dark yellow. The darker sample was evaluated with XRPD. The sample color changed back to light yellow at the conclusion of the XRPD evaluation, which was similar to the color before the heating treatment. […] Another sample of Form 1 was heated in an oven at 100° C. for 20 minutes and subsequently analyzed for the moisture content using KF method. The moisture content of heated Form 1 was 6.8%. […] The product is unstable and will rapidly absorb water.

Data set [5] can be described thus: Long-term stability of Compound I Form 2 (XRPD). The protocol: The stability of Compound I Form 2 was analyzed by the following two experiments.
Experiment A: The following is an X-ray Powder Diffraction Analytical method used to obtain the data shown in FIG. 43 and FIG. 44, and which complies with ChP<0451>/USP/NF<941>/EP10.6 2.9.33. Standard XRPD patterns were collected using a Bruker D8 Advance diffractometer or equivalent instrument.
Parameters for collecting the XRPD shown in FIG. 43 and FIG. 44 is as follows:
The XRPD patterns shown in FIG. 45 and FIG. 46 were collected using a Bruker D2 Phaser X-ray diffractometer. Detector: PSD LynxEye; Sample holder: Zero background sample holder or equivalent; Software: DIFFRAC. Measurement Center, Version V6.5.0 or equivalent; Diffractometer Settings: Diffractometer type: 02 phaser; Goniometer Type: Theta/Theta; Sample Stage: Standard rotating stage; Goniometer Diameter: 282.2 mm; Divergence slit: 1.0 mm; Primary seller slit: 2.5°; Secondary seller slit: 2.5°; Airscatter screen module: 1.0 mm; Tube Element: Cu; Tube parameters: voltage 30 kV; current 10 mA; Scan Parameters: SSD160: Locked coupled; SSD160-2: coupled Two Theta/Theta Scan Type: SSD160: Locked coupled; SSD160-2: coupled Two Theta/Theta; Continuous PSD fast Scan Mode: Continuous PSD fast scan; Rotation Speed: 20 rpm; Start: 3° ˜40° (2 0); Scan Step: 0.02° (2 0); Scan Speed: 0.2s/step; Detector opening: 4.5°; Sample Analysis; Test the sample with the Diffractometer Settings and Scan Parameters. The powder X-ray diffraction pattern of the sample was recorded and calculations were performed according to Bruker D2 Phaser X-ray Diffractometer User Manual V6-Identification of Crystal Form by X-Ray Powder Diffraction (XRPD)-Bruker D2 Phaser.

In brackets after ≈: the same amount, converted by molar mass. A value given as a limit tells only on which side of the number the result lay.

`CCc1nc2ccccn2c1C(=O)c1cc(Br)c(O)c(C#N)c1` [Form 1, 3-bromo-5-[(2-ethylimidazo[1,2-a]pyridin-3-yl)carbonyl]-2-hydroxybenzonitrile]: the Solubility in data set [1] (acetone, organic solvent or mixture) is less than 1000 µg/mL; in data set [1] (acetone:water 3:1, organic solvent or mixture, Acetone:water = 3:1), less than 1000 µg/mL; in data set [1] (acetonitrile (ACN), organic solvent or mixture), less than 1000 µg/mL; in data set [1] (dichloromethane (DCM), organic solvent or mixture) it was less than 1000 µg/mL; in data set [1] (dimethylformamide (DMF), organic solvent or mixture), more than 25000 µg/mL; in data set [1] (dimethylsulfoxide (DMSO), organic solvent or mixture), more than 25000 µg/mL. The Solubility in data set [1] (ethanol, organic solvent or mixture, Ethanol (EtOH)) was less than 1000 µg/mL; in data set [1] (ethyl acetate, organic solvent or mixture, Ethyl acetate (EtAc)), less than 1000 µg/mL; in data set [1] (heptane, organic solvent or mixture), less than 1000 µg/mL; in data set [1] (isopropyl alcohol, organic solvent or mixture), less than 1000 µg/mL; in data set [1] (methanol, organic solvent or mixture, Methanol (MeOH)), less than 1000 µg/mL; in data set [1] (methanol:water 3:1, organic solvent or mixture, Methanol:water = 3:1), less than 1000 µg/mL. For the same compound, the Solubility in data set [1] (methyl ethyl ketone (MEK), organic solvent or mixture) was less than 1000 µg/mL; in data set [1] (tetrahydrofuran (THF), organic solvent or mixture), approximately 3000 µg/mL (≈ 8100 µM); in data set [1] (toluene, organic solvent or mixture), less than 1000 µg/mL; in data set [1] (water, Water (H2O)), less than 1000 µg/mL. The “XRPD pattern after stress storage” value in data set [2] was “substantially similar to those received at the initial time”. The “Crystal form after dispersion in 0.5% CMC-Na solution (XRPD)” value in data set [3] is reported as “did not change”. In addition, the Behaviour upon heating entry in data set [4] is “may lose water upon heating”.
Consider `CCc1nc2ccccn2c1C(=O)c1cc(Br)c(O)c(C#N)c1` [Form 2, 3-bromo-5-[(2-ethylimidazo[1,2-a]pyridin-3-yl)carbonyl]-2-hydroxybenzonitrile], for which, in data set [2], the “XRPD pattern after stress storage” value is recorded as “substantially similar to those received at the initial time”. In addition, in data set [2] (open vial, 40° C., 75% RH), the “XRPD after storage in an open vial” value is given as “significant changes at the end of ninth day”. The “Crystal form after dispersion in 0.5% CMC-Na solution (XRPD)” value in data set [3] is reported as “transformed into Form 1”. For the same compound, the “Period over which the form remains stable (XRPD)” value is reported as “at least 12 months” in data set [5] (Experiment A, 25° C.±2° C./60% RH±5% RH); “at least 6 months” in data set [5] (Experiment A, 40° C.±2° C./75% RH±5% RH); “at least 48 months” in data set [5] (Experiment B, 25° C.±2° C./60% RH±5% RH); “at least 6 months” in data set [5] (Experiment B, 40° C.±2° C./75% RH±5% RH).

Values taken from patent US20250368639A1, “SOLID FORMS OF A COMPOUND FOR TREATING OR PREVENTING HYPERURICEMIA OR GOUT” (ATOM THERAPEUTICS CO., LTD, priority 2022, published 2025).
